# According to article PMC9248040 (RSC Advances, 2022):
# Legend:
# Assay type in all cases: biochemical
# [1] = molecular target: T1, MAO-B (monoamine oxidase-B) (Homo sapiens, UniProt P27338); test: fluorometric OxiRed-probe kit inhibition assay
# T1 sequence (P27338 2-520): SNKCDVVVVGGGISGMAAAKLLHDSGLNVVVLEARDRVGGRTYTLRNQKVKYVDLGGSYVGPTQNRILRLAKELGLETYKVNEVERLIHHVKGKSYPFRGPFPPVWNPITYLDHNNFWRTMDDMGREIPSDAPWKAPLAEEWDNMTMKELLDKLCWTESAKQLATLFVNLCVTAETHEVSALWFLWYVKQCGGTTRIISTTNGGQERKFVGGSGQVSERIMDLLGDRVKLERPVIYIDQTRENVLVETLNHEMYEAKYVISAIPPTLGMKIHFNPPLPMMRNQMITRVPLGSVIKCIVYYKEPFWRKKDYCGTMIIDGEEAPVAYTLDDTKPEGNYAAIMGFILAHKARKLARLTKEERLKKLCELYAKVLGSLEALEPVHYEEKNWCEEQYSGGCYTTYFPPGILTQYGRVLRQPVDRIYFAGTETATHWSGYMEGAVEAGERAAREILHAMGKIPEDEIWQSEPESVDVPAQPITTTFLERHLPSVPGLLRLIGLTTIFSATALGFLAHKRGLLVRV
# [2] = molecular target: BACE1 (β-secretase) (Homo sapiens, UniProt P56817); test: fluorescence kit substrate-cleavage inhibition assay
# [3] = molecular target: Aβ1–42 (amyloid-β 1-42) (Homo sapiens, UniProt P05067); test: fluorescent-probe fibril aggregation inhibition kit assay
# Chain of Aβ1–42 (amyloid-β 1-42) (P05067 672-713): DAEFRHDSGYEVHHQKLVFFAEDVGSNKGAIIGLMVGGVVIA
# Chain of BACE1 (β-secretase) (P56817 46-457): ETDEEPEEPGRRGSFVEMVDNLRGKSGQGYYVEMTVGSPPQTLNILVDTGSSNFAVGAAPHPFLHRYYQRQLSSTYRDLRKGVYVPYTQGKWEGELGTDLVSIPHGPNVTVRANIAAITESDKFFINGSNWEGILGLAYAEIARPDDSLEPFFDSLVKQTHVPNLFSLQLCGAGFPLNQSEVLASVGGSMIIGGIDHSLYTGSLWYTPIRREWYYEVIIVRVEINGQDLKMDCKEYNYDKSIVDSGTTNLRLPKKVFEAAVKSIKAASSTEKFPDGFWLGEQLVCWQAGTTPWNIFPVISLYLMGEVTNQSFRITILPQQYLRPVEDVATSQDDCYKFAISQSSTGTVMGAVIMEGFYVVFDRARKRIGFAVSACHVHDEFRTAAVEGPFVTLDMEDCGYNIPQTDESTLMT
IC50 [1],IC50 [2],IC50 [3],SMILES
2.07 µM,15.7 µM,0.874 µM,"COc1cc(/C=C/C(=O)NCCc2ccc(O)c(OC)c2)ccc1O [compound 1, N-trans-feruloyl-3-methoxytyramine]"
7.15 µM,37 µM,3.83 µM,"COc1cc(/C=C/C(=O)NCCc2ccc(O)cc2)ccc1O [compound 2, N-trans-feruloyltyramine]"
18 µM,110 µM,39.8 µM,"COc1cc(/C=C/C(=O)NC[C@@H](O)c2ccc(O)cc2)ccc1O [compound 4, S-(−)-N-trans-feruloyloctopamine]"
8.75 µM,34.1 µM,20.2 µM,"O=C(/C=C/c1ccc(O)c(O)c1)NCCc1ccc(O)cc1 [compound 6, N-trans-caffeoyltyramine]"
4.43 µM,16.4 µM,7.63 µM,"COc1cc(/C=C/C(=O)NC[C@@H](OC)c2ccc(O)cc2)ccc1O [compound 7, S-(−)-3-(4-hydroxy-3-methoxyphenyl)-N-[2-(4-hydroxyphenyl)-methoxyethyl]acrylamide]"
